From PubChem BioAssay (NCI)
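Tested at 5 concentrations; 48 h exposure; 96-well plates; endpoints linearly interpolated, else capped at highest concentration. GI50 = concentration required for 50% inhibition of growth. Definition used: TGI = concentration required for complete inhibition of growth.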

Tests used:
Test in all cases: DTP human tumour cell line panel, 48 h
[1] = tested on: CCRF-CEM leukemia
[2] = tested on: HOP-62 NSCLC
[3] = tested on: HOP-92 NSCLC
[4] = tested on: IGROV1 ovarian
[5] = tested on: MCF7 breast
[6] = tested on: NCI-H23 lung
[7] = tested on: PC-3 prostate
[8] = tested on: RPMI-8226 leukemia
[9] = tested on: SF-295 CNS
[10] = tested on: HL-60(TB) leukemia

Row | SMILES | GI50 [1] [µM] | TGI [1] [µM] | GI50 [2] [µM] | TGI [2] [µM] | GI50 [3] [µM] | TGI [3] [µM] | GI50 [4] [µM] | TGI [4] [µM] | GI50 [5] [µM] | TGI [5] [µM] | GI50 [6] [µM] | TGI [6] [µM] | GI50 [7] [µM] | TGI [7] [µM] | GI50 [8] [µM] | TGI [8] [µM] | GI50 [9] [µM] | TGI [9] [µM] | TGI [10] [µM] | GI50 [10] [µM]
1 | CCCCCCCCCCCCCCCCN1CC2CCCCC2C1 (stereo unspecified) | 2.43 | 6.56 | 12.5 | 25.7 | 2.38 | 6.52 | 3.58 | 12.2 | 9.57 | > 100 | 3.14 | 9.94 | 2.11 | 5.56 | 1.97 | 4.06 | 14.6 | 37 | – | –
2 | CCc1ccccc1NC(=O)C(=O)CC(=O)c1sc(Nc2ccccc2)nc1C | – | > 100 | – | > 100 | – | > 100 | – | > 100 | – | – | – | > 100 | – | – | – | – | – | > 100 | > 100 | –
3 | Cc1cc(N(CCC#N)CCC#N)ccc1N=Nc1cccc(C(=O)O)c1 | – | > 100 | – | > 100 | – | – | – | > 100 | – | – | – | > 100 | – | – | – | – | – | > 100 | > 100 | –
4 | COc1ccc(-c2n/c(=C\c3c(O)[nH]c4ccc(OC)cc34)cc3c2=Nc2ccccc2-3)cc1 | – | – | 2.36 | 4.91 | 13.8 | 36.1 | 12 | > 100 | – | – | 1.89 | 3.97 | 22.1 | > 100 | 3.21 | 37.3 | 3.9 | 24.1 | 32.5 | 10.3
5 | O=c1/c(=C/c2ccccc2F)sc2nc3ccccc3n12 | – | > 100 | – | – | – | > 100 | – | > 100 | – | – | – | > 100 | – | – | – | > 100 | – | > 100 | > 100 | –
6 | COc1ccc(-c2nc3sc4c(c3c(=O)[nH]2)CCCCCC4)cc1 | > 33.2 | > 33.2 | 1.87 | > 33.2 | 1.4 | 14.5 | 6.38 | > 33.2 | – | – | > 33.2 | > 33.2 | > 33.2 | > 33.2 | > 33.2 | > 33.2 | 0.989 | > 33.2 | > 33.2 | 0.874
7 | COc1ccc(-c2csc(N(C(=O)N3CCN(c4cc5c(cc4F)c(=O)c(C(=O)O)cn5C4CC4)CC3)c3ccccc3)n2)cc1 | 3.06 | > 100 | 1.12 | > 79 | 0.597 | 2.14 | 1.21 | > 100 | 3.09 | > 100 | 2.96 | 18.4 | 2.77 | > 100 | – | – | 2.49 | 8.61 | 5.94 | 2.34
8 | COc1cc(/C=C/c2cc(O)c3cc(C(C)=O)c(=O)oc3c2)cc2c1O[C@]1(C)CC[C@@H](O)C(C)(C)[C@H]1C2 | – | > 29.4 | > 26.8 | > 79.9 | – | > 28.5 | > 25.9 | > 66.1 | – | > 39.3 | > 22.2 | > 55 | – | > 36 | – | – | – | – | 10.7 | 2.12
9 | CC1=C(C)C(=O)c2c(cc3ccccn23)C1=O | – | > 100 | – | – | – | – | – | 54.5 | – | – | – | 23.3 | – | – | – | 65.9 | – | 31.8 | 43.2 | –
10 | CC1=C(Oc2ccccc2)C(CCC(=O)O)c2c(O)cc(Cl)c(O)c21 (stereo unspecified) | – | > 100 | – | > 100 | – | > 100 | – | > 100 | – | – | – | > 100 | – | – | – | > 100 | – | > 100 | > 100 | –
11 | CCOc1ccc(NC(=O)C(=O)CC(=O)C2=C(C)Nc3ccccc3S2)cc1 | – | > 50 | – | > 50 | – | > 50 | – | > 50 | – | – | – | > 50 | – | – | – | > 50 | – | > 50 | – | –
12 | COc1cc(OC(C)=O)cc2c(OC(C)=O)ccc(OC(C)=O)c12 | – | > 100 | – | > 100 | – | 46.7 | – | > 100 | – | – | – | > 100 | – | – | – | > 100 | – | > 100 | > 100 | –
13 | C1C[OH+]CC[OH+]CCNCC[OH+]CC[OH+]CCN1.N.[Cl-].[Pt+4] | 0.62 | > 100 | 6.11 | 66.3 | 16.1 | 58.3 | 4.55 | 34.7 | – | – | 1.8 | 12 | – | – | 10.2 | 92.7 | 2.96 | 19.7 | > 100 | 1.61
14 | C=CCC[CH2][Sn]([c]1ccccc1)([c]1ccccc1)[c]1ccccc1 | 1.01 | 4.37 | 2.25 | 3.99 | 1.78 | 3.38 | 1.77 | 3.35 | – | – | 1.64 | 3.01 | – | – | 1.65 | 4.37 | 1.99 | 3.6 | > 100 | 5.29
15 | COC(C(=O)[O][Ge]([CH3])([CH3])[CH3])c1ccccc1 (stereo unspecified) | > 100 | > 100 | > 100 | > 100 | > 100 | > 100 | > 100 | > 100 | – | – | > 100 | > 100 | – | – | > 100 | > 100 | > 100 | > 100 | – | –
16 | CCOC(=O)COc1ccccc1/C=C1\CCC(CN(C)C)C1=O (stereo unspecified) | – | 8.42 | – | 35.8 | – | 25.8 | – | 30.4 | – | 19.8 | – | 19.3 | – | – | – | 3.48 | – | 35.5 | 2.58 | –
17 | Cc1ccc(NC(=O)C(=O)C(C#N)c2ccccc2C)cc1C (stereo unspecified) | – | > 100 | – | > 100 | – | > 100 | – | > 100 | – | – | – | > 100 | – | – | – | > 100 | – | > 100 | > 85.8 | –
18 | COc1ccc(OC)c(NC(=O)C2=C(C)NC(C)=C(C(=O)Nc3cc(OC)ccc3OC)C2c2ccccc2)c1 | – | > 100 | – | > 100 | – | > 100 | – | > 100 | – | – | – | > 100 | – | – | – | > 100 | – | > 100 | – | –
